Test results: patent publication US20210085807A1, “METAL-BINDING PEPTIDE AND USE THEREOF” (The University of Tokyo, priority 2018, published 2021)

Experiment: Adsorption on stent in plasma, fluorescence microscopy
Type: binding
Conditions: stent immersed in human plasma 37° C., 30 minutes, then 0.5 mM peptide or PEG-peptide conjugate solution 37° C.
Procedure: Next, in order to analyze the binding ability of the peptide of the present invention to a stent existing in plasma, whether or not the peptide of the present invention binds to a stent that has been allowed to come into contact with plasma was examined.
That is, a stent was immersed in human plasma (37° C., 30 minutes), and was then removed from the plasma. The stent was then immersed in each peptide solution (0.5 mM) and a PEG-peptide conjugate solution (0.5 mM) (37° C., 30 minutes). Thereafter, the stent was sufficiently rinsed with PBS, and was then observed under a fluorescence microscope.
FIG. 15 and FIG. 16 show the fluorescence microscopic images of the stents, and the observed fluorescence intensities are summarized in FIG. 17. The method of digitizing the fluorescence intensity is as described above.

## LTPHKHHKHLHA [YT07]
  binding to the surface of the stent after contact with human plasma: does not bind to a stent
